# Measured values reported in patent US20200077655A1, “Use of an Acyclic Picolinamide Compound as a Fungicide for Control of Phytopathogenic Fungi in Orchard, Vineyard and Plantation Crops” (Dow AgroSciences LLC, priority 2017, published 2020).
# Columns and labels:
# Assay type in all cases: in vivo
# [1] = test system: Botrytis (BOTRSP); assay: Field assessment of jacket rot in almond; conditions: MSO, almond nut infection
# Method: A fungicidal treatment containing Compound I, applied in an SC formulation (MSO-built in) was sprayed on almond trees (Prunus spp.) at bloom, petal fall and ca. 3 and 5 weeks after petal fall at rates of 60, 120, 150, and 180 g ai/ha. The experimental plots were conducted with a natural infestation of Botrytis. The treatments were part of an experimental trial designed as a randomized complete block (RCB) with three replications and a plot of approximately 18×18 ft. Compound I was applied at water volume of 100 gal/acre, using an Airblast sprayer. Nut infection (number of visual diseased nuts per total nuts counted per tree on whole plot) was assessed and recorded 17 days after application 4 (17 DAA4). Relative percent control was calculated as percent of the untreated control using Abbotts.
# [2] = test system: Stigmina carpophila (STIGCA); assay: Field assessment of shot hole in almond, leaf and nut incidence; conditions: for Leaf Incidence of STIGCA 121 DAAA: untreated 3.1; for Nut Incidence of STIGCA 121 DAAA: untreated 6.3
# Text: A fungicidal treatment containing Compound I, applied in an SC formulation (MSO built-in) and tank mixed with an adjuvant (Adsee C80W 80%), was sprayed on almond trees (PRNDU, Butte variety), 2 applications, […] The experimental plots were run under natural infestation. The treatment was part of an experimental trial designed as a randomized complete block (RCB) with three replications and a plot of approximately 16×22 ft. Compound I was applied at water volume of 100 gal/acre, using a motorized backpack sprayer (Orifice nozzle 2.3 setting).
# Leaf incidence (number of visual diseased leaves per 20 leaves per tree on the whole plot) was assessed 121 days after application A (121 DAAA).
# Nut incidence (number of visual diseased nuts per 10 nuts per tree on the whole plot) was assessed 121 days after application A (121 DAAA).
# [3] = test system: Botrytis cinerea (BOTRCI); assay: Field assessment of gray mold on strawberry
# Text: On strawberry: A fungicidal treatment containing Compound I, applied in a 5% EC formulation and tank mixed with an adjuvant (Trycol, 50% w/w at 0.2% v/v), was sprayed on strawberry plants (FRAAN, Candonga variety) at rates of 50, 150 and 200 grams of active ingredient per hectare (g ai/ha). The trial was based on four broadcast applications during the growing season at approximately 10 day intervals with grey mold inoculation after the last application (plant growth stage B85). The treatment was part of an experimental trial designed as a randomized complete block with four replications and a plot size of approximately 2.0×5.0 m. Formulations of compound I were applied at water volume of 800 L/ha, using a backpack plot sprayer (BKPCKENG, solo 433; HCSOLID—Albutz ATR80 Yellow nozzle) and pressurized at 300 kPa.
# Disease severity was recorded as a percentage of fruit incidence of damaged fruits on a random sample of 100 fruits per plot. Gray mold infection was assessed twice at 10 days after the third application (10DAAC) and 10DAAD. Area under the disease progress curve (AUDPC) was calculated for each plot using the sets of recorded incidence data. Relative AUDPC (% control based on AUDPC) was calculated as percent of the nontreated control.
# [4] = test system: Monilinia fructicola (MONIFC); assay: Field assessment on brown rot of fruits on nectarines, harvest and shelf life simulation; conditions: curative; for Percent control based on fruit incidence vs untreated, Harvest: 8 DAAB
# Text: A fungicidal treatment containing Compound I, applied in a 5% EC formulation and tank mixed with an adjuvant (Trycol, 50% w/w at 0.2% v/v), was sprayed twice during fruit ripening on the plant canopy of nectarines (PRNPN, Calfornia variety) at rates of 50, 100, and 150 grams of active ingredient per hectare (g ai/ha). The applications were done at 8 day intervals with disease inoculation 12 days before the first application (curative). The treatment was part of an experimental trial designed as a randomized complete block with four replications and a plot of approximately 4.3×6.0 m, with compound I being applied using a MISTBLOW, Solo backpack applicator at a water volume of 800 L/ha.
# The pathogen was certified to be Monilinia fructicola (MONIFC) by means of an immunoassay followed by a PCR assay on material collected (mummies) from the trial. The brown rot disease at harvest was evaluated on 100 randomly picked fruits per plot, 8 days after application B (8 DAAB), calculating the incidence of fruit with disease and then the percent control using Abbotts. Visually healthy samples of 60 fruits per plot were then placed in alveolus plates and kept for 5 days in cold storage. The samples were then maintained for […] at about 20° C. (shelf life period). Several assessments were made to check the development of disease during the shelf life simulation. In particular, the percentage of rotten fruits were checked at the exit from cold storage (after 5 days of refrigeration, 13 DAAB) followed by 15, 17, 20 and 23 DAAB. Percent of fruit with disease was calculated (incidence) amd then percent control was calculated using Abbotts.
# [5] = test system: Podosphaera clandestina (PODOCL); assay: Field assessment of powdery mildew in cherry; conditions: cherry leaves, 14 DAA5
# Text: A fungicidal treatment containing Compound I, applied in an SC formulation (MSO built-in) and tank mixed with an adjuvant (Agnique BP-420, 50% w/w at 0.2% v/v or Adsee C80W 80%), was sprayed on cherry trees (PRNAV, Sentennial variety) at growth stage (mid petal fall, flowers fading, petals falling; BBCH 67-85) at rates of 60, 120, 150, and 180 g ai/ha. The experimental plots were run with natural infestation. The treatment was part of an experimental trial designed as a randomized complete block (RCB) with four replications and a plot of approximately 4×6 m. Compound I was applied at water volume of 1000 L/ha, using an Airblast sprayer.
# Disease severity (percentage of visual diseased foliage (leaf) on whole plot) and disease incidence were assessed 14 days after application 5 (14 DAA5). The disease infection was recorded. Disease was evaluated as percent of leaves with disease (incidence), percent diseased leaf area (severity, a disease index calculated (percent (%) incidence×percent (%) severity) and then percent (%) control was calculated using Abbotts from the disease index values. Results are given in Table 12.
# [6] = 120 g ai/ha, Adsee C80W, 300 g ai/ha
structure (smiles),measurement,setting,value
"COc1ccnc(C(=O)N[C@@H](C)C(=O)O[C@@H](C)C(c2ccc(F)cc2)c2ccc(F)cc2)c1OC(C)=O [Compound I, (S)-1,1-bis(4-fluorophenyl)propan-2-yl (3-acetoxy-4-methoxypicolinoyl)-L-alaninate]",Calc Percent Control of BOTRSP 17 DAA4,"[1]; 60 g ai/ha, 120 g ai/ha",37.9%
same,Calc Percent Control of BOTRSP 17 DAA4,"[1]; 120 g ai/ha, 240 g ai/ha",40.0%
same,Calc Percent Control of BOTRSP 17 DAA4,"[1]; 150 g ai/ha, 300 g ai/ha",51.6%
same,Calc Percent Control of BOTRSP 17 DAA4,"[1]; 180 g ai/ha, 360 g ai/ha",53.5%
same,Leaf Incidence of STIGCA 121 DAAA,"[2]; 60 g ai/ha, MSO, 120 g ai/ha",3.0 Number of Leaves per 20 Leaves
same,Nut Incidence of STIGCA 121 DAAA,"[2]; 60 g ai/ha, MSO, 120 g ai/ha",5.6 Number of Nuts per 10 Nuts
same,Leaf Incidence of STIGCA 121 DAAA,[2]; [6],1.4 Number of Leaves per 20 Leaves
same,Nut Incidence of STIGCA 121 DAAA,[2]; [6],2.5 Number of Nuts per 10 Nuts
same,Leaf Incidence of STIGCA 121 DAAA,"[2]; 120 g ai/ha, MSO, 240 g ai/ha",2.2 Number of Leaves per 20 Leaves
same,Nut Incidence of STIGCA 121 DAAA,"[2]; 120 g ai/ha, MSO, 240 g ai/ha",6.0 Number of Nuts per 10 Nuts
same,Leaf Incidence of STIGCA 121 DAAA,"[2]; 150 g ai/ha, MSO, 300 g ai/ha",1.7 Number of Leaves per 20 Leaves
same,Nut Incidence of STIGCA 121 DAAA,"[2]; 150 g ai/ha, MSO, 300 g ai/ha",4.4 Number of Nuts per 10 Nuts
same,Leaf Incidence of STIGCA 121 DAAA,"[2]; 180 g ai/ha, MSO, 360 g ai/ha",1.9 Number of Leaves per 20 Leaves
same,Nut Incidence of STIGCA 121 DAAA,"[2]; 180 g ai/ha, MSO, 360 g ai/ha",4.4 Number of Nuts per 10 Nuts
same,Percent control (AUDPC) from fruit infection assessments,[3]; 50 g ai/ha,B (51-75)
same,Percent control (AUDPC) from fruit infection assessments,[3]; 150 g ai/ha,A (76-100)
same,Percent control (AUDPC) from fruit infection assessments,[3]; 200 g ai/ha,A (76-100)
same,"Percent control based on fruit incidence vs untreated, Shelf Life Simulation",[4]; 50 g ai/ha,C (26-50)
same,"Percent control based on fruit incidence vs untreated, Harvest",[4]; 50 g ai/ha,B (51-75)
same,"Percent control based on fruit incidence vs untreated, Shelf Life Simulation",[4]; 100 g ai/ha,C (26-50)
same,"Percent control based on fruit incidence vs untreated, Harvest",[4]; 100 g ai/ha,B (51-75)
same,"Percent control based on fruit incidence vs untreated, Shelf Life Simulation",[4]; 150 g ai/ha,B (51-75)
same,"Percent control based on fruit incidence vs untreated, Harvest",[4]; 150 g ai/ha,B (51-75)
same,Calc Percent Control of PODOCL,"[5]; 60 g ai/ha, Agnique BP420, 240 mL/ha",64.6%
same,Calc Percent Control of PODOCL,"[5]; 60 g ai/ha, MSO, 120 g ai/ha",63.3%
same,Calc Percent Control of PODOCL,"[5]; 120 g ai/ha, Adsee C80W 80%, 300 g ai/ha",44.4%
same,Calc Percent Control of PODOCL,"[5]; 120 g ai/ha, Agnique BP420, 480 mL/ha",46.9%
same,Calc Percent Control of PODOCL,"[5]; 120 g ai/ha, MSO, 240 g ai/ha",37.9%
same,Calc Percent Control of PODOCL,"[5]; 150 g ai/ha, Agnique BP420, 600 mL/ha",44.4%
same,Calc Percent Control of PODOCL,"[5]; 150 g ai/ha, MSO, 300 g ai/ha",91.7%
same,Calc Percent Control of PODOCL,"[5]; 180 g ai/ha, Agnique BP420, 720 mL/ha",48.7%
same,Calc Percent Control of PODOCL,"[5]; 180 g ai/ha, MSO, 360 g ai/ha",89.1%
